Data published in patent US20260284082A1, “TARGETING THE PANX1-P2Y2R-TRPV4 PATHWAY TO TREAT LUNG ISCHEMIA-REPERFUSION INJURY” (UNIVERSITY OF VIRGINIA PATENT FOUNDATION, priority 2023, published 2026).

Columns and labels:
[1] = tested on: murine primary pulmonary microvascular endothelial cells (PMVECs); assay: Proinflammatory cytokine release from murine PMVECs after hypoxia-reoxygenation; format: cell-based; conditions: 6 h hypoxia + 4 h reoxygenation, AR-C 10 mM, 5 μM
Method: We used 6 hours hypoxia followed by 4 hours normoxia/reoxygenation (HR) in murine primary pulmonary microvascular endothelial cells (PMVECs) as a surrogate model of lung IR. Control cells were exposed to 10 hours normoxia (N). PMVECs were treated with vehicle or P2Y2R inhibitor AR-C ([…], 6 hrs). The concentrations of chemokine (C—X—C motif) ligand 1 (CXCL1) and monocvte chemoattractant protein-1 (MCP-1) in the culture media was measured using a mouse keratinocyte-derived chemokine (KC)/CXCL1 Quantikine ELISA kit (R&D Systems, Minneapolis, MN) and multiplex cytokine panel assay (Bio-Rad Laboratories, Hercules, CA), respectively. KC and MCP-1 levels were increased in PMVECs exposed to HR. Treatment of PMVECs with P2Y2R inhibitor AR-C reduced the levels of KC (FIG. 13A) and MCP-1 (FIG. 13B) in the culture media.

[2] = tested on: pulmonary endothelium of small PAs; assay: Endothelial Ca2+ signals in small PAs exposed ex vivo to acute hypoxia-reoxygenation (HR); format: cell-based; conditions: GSK219 100 nM; small PAs from TRPV4fl/fl mice, 1 h hypoxia + 10 min reoxygenation
Method: Ca^2+ imaging in Pas: Ca^2+ imaging in small Pas was performed as previously described.8 Fourth-order, small (~50 μm diameter) Pas (see FIG. 1B) were dissected from left lungs in cold HEPES-buffered physiological salt solution (HEPES-PSS; 10 mM HEPES, 134 mM NaCl, 6 mM KCl, 1 mM MgCl2 hexahydrate, 2 mM CaCl2) dihydrate, and 7 mM dextrose; pH adjusted to 7.4 using 1 M NaOH). Ca^2+ imaging studies were performed in en face preparations of small Pas incubated with Fluo-4 AM (10 μM) and pluronic acid (0.04%) at 37° C. for 10 minutes. For studies after sham or lung IR surgery, small Pas were immediately dissected out after the indicated reperfusion time and incubated en face with Fluo-4 AM. […] Fluo-4 was excited using a 488-nm solid-state laser, and emitted fluorescence was captured using a 525/36-nm band-pass filter. […] Baseline Ca^2+ signaling activity was recorded in the absence of CPA.
Analysis of baseline Ca^2+ signaling activity and TRPV4 sparklet activity in the pulmonary endothelium: Ca^2+ images acquired using the procedure described above were analyzed with custom-designed SparkAn software (source code available at https://github.com/vesselman/SparkAn).^10 Fractional fluorescence (F/F0) traces were obtained by placing a 1.7 μm2 (5×5 pixels) region of interest (ROI) at the peak event amplitude. […] Overall baseline Ca^2+ signals were automatically detected using a threshold of 1.25 F/F0. […]

Row | SMILES | KC level in the culture media [1] | MCP-1 level in the culture media [1] | HR-induced increase in endothelial Ca2+ signals [2]
1 | Cc1ccc2c(c1)C=Cc1cc(C)ccc1C2c1cn(Cc2ccc(C(=O)Nc3nn[nH]n3)o2)c(=O)[nH]c1=S [ARC, AR-C 118925XX] | reduced | reduced | 
2 | O=C(NC1(c2ccccc2)CC1)c1c(CN2CCC(N3CCCCC3)CC2)c(-c2cccc(C(F)(F)F)c2)nc2cc(Br)ccc12 [GSK219, GSK2193874] |  |  | completely abolished
